Test results as given in paper PMC6471485, “Selective Inhibitors of a Human Prolyl Hydroxylase (OGFOD1) Involved in Ribosomal Decoding” (Chemistry (Weinheim an Der Bergstrasse, Germany), 2019).

Key:
[1] = molecular target: T1, OGFOD1 (Homo sapiens, UniProt Q8N543); assay: OGFOD1 inhibition assay: hydroxylation of RPS23 51-70 peptide by MALDI-TOF MS; type: biochemical; settings: for selectivity for OGFOD1 over PHD2, in words: OGFOD1 and PHD2 1 µM each, 23 at 100 µM (Figure 4; Figure S6); for OGFOD1 inhibition in fragment-based screening, in words: OGFOD1 1 μM (Figure 3B); for relative potency of OGFOD1 inhibition in barbiturate SAR, in words: OGFOD1 1 µM, inhibitors at 100, 20, 5, 1 µM (Figure S9) or 5 and 1 µM (Figure S10); for IC50: IC50 against OGFOD1, 1 μM OGFOD1, minimum measurable IC50 0.5 μM, values for 24 and 25 regarded as preliminary; for inhibition of OGFOD1 hydroxylation activity, in words: inhibitor 100 µM, OGFOD1 1 µM (Figures S1, S2)
T1 sequence (Q8N543 1-542): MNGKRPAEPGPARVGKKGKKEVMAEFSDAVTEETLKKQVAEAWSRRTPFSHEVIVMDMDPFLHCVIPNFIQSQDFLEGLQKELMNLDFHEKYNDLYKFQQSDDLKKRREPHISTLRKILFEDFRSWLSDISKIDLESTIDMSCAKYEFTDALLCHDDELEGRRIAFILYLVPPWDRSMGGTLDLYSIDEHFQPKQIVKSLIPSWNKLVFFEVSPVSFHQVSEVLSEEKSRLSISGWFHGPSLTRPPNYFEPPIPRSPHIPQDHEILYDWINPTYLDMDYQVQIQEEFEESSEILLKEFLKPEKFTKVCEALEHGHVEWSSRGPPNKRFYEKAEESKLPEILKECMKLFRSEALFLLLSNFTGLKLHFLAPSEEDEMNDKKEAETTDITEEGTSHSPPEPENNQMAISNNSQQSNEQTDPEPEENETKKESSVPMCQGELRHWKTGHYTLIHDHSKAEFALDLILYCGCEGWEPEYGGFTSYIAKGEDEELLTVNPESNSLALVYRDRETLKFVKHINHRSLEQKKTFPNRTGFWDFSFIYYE
Protocol: (§1) OGFOD1 inhibition assays were performed by determining the extent of hydroxylation of a 20mer fragment of human ribosomal protein S23 (RPS23) containing residues 51-70 (H2N- […]
(§2) -CONH2) by matrix-assisted laser desorption/ionization time-of-flight mass spectrometry (MALDI-TOF MS) using a Waters Micromass MALDI micro MX mass spectrometer and MassLynx 4.1, as previously described.[7,8] The optimized hydroxylation assay involved incubation of OGFOD1 (1 µM) with inhibitor (1 % v/v in DMSO) in the presence of (NH4)2Fe(SO4)2 (50 µM), the disodium salt of 2-oxoglutarate (25 µM), […]
OGFOD1 was pre-incubated with inhibitor for 5 min before initiation of the reaction via the addition of the other reagents. Reactions were quenched with formic acid (1 % v/v) after 15 min. Samples were prepared for MALDI using α-cyano-4-hydrocinnamic acid (CHCA; prepared in 50 % acetonitrile) as a matrix. Dose-responses were assessed in 8-point triplicates, normalized to a no enzyme negative control and a no inhibitor positive control. Non-linear regression analysis was performed using Prism (GraphPad). […]

[2] = system: PHD enzymes in HeLa cells; assay: HIFα Western blot in HeLa cells (activity of PHD enzymes in cells); type: cell-based, human; settings: HeLa cells treated 5 h, anti-HIF-1α Western blot
Protocol: supplemented with 80 µM Zn(II), 70 µM of inhibitor, all in 50 mM Tris-d11, pH 7.5, 10 % D2O, […]
Cell Culture and Immunoblotting
HeLa cells were cultured in DMEM media supplemented with 10 % fetal bovine serum, 4 mM L-glutamine, 100 U/mL penicillin, and 100 µg/mL streptomycin. Cells were treated with the indicated compounds, prepared in 1% DMSO, for 5 h. Following a PBS buffer rinse, cells were lysed in urea/SDS buffer supplemented with 1 mM dithiothreitol. Cell extracts were analyzed by SDS-PAGE, electroblotted onto PVDF membranes (Millipore) and probed with anti-HIF-1α antibody (clone 54, BD Transduction Laboratories) at 1:1000 dilution for 1 h at room temperature. The HRP-conjugated secondary antibody was then applied at room temperature for 1 h. Target proteins were detected with SuperSignal Chemiluminescent […]
ADMET in vitro Predictors
S9 liver microsome stability assays and MDCK-MDR1 efflux assays were carried out for CCT3 and CCT4 by Cyprotex (UK). Additional details are provided later in the Supporting

[3] = molecular target: T2, PHD2181-426 (Homo sapiens, UniProt Q9GZT9); assay: PHD2 inhibition assay: hydroxylation of HIF-1a CODD peptide by MALDI-TOF MS; type: biochemical; settings: inhibitor 100 µM, PHD2181-426 1 µM (Figures S2, S8)
T2 construct: 181-426 (1 µM) was
Protocol: as §1, §2
OGFOD1 was pre-incubated with inhibitor for 5 min before initiation of the reaction via the addition of the other reagents. Reactions were quenched with formic acid (1 % v/v) after 15 min. Samples were prepared for MALDI using α-cyano-4-hydrocinnamic acid (CHCA; prepared in 50 % acetonitrile) as a matrix. Dose-responses were assessed in 8-point triplicates, normalized to a no enzyme negative control and a no inhibitor positive control. Non-linear regression analysis was performed using Prism (GraphPad).
PHD2181-426 inhibition assays were performed by determining the extent of hydroxylation of a HIF-1a CODD peptide substrate (HIF-1a residues 556-574), using MALDI-TOF MS as described with OGFOD1.[8] The optimized hydroxylation assay involved incubation of PHD2181-426 (1 µM) with inhibitor (1 % v/v in DMSO) in the presence of (NH4)2Fe(SO4)2 (10 µM), the disodium salt of 2-oxoglutarate (60 µM), sodium ascorbate (100 µM), and HIF-1aCODD 556-574 (50 µM) in HEPES (50 mM, pH 7.5) at 37 °C for 15 min. The FIH assay employed MALDI-TOF MS detection of hydroxylation. Reactions consisted of FIH […]
(50 nM), ankyrin peptide (50 µM; […]), the disodium salt of 2- […]
oxoglutarate (100 µM), sodium ascorbate (100 µM), and (NH4)2Fe(SO4)2 (10 µM), and […]

T2 sequence (Q9GZT9 181-426 limits assumed): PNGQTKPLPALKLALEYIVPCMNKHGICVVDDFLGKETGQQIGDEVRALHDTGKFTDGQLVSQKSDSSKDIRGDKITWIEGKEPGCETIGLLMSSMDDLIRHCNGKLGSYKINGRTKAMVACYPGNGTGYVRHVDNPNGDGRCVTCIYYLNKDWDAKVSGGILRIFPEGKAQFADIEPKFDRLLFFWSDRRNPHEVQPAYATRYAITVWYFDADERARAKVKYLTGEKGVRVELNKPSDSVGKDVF

## Cc1ccc(CCC(=O)c2c(O)n(C)c(=O)n(C)c2=O)cc1
other
  melting point: 140 °C

## CCOC(=O)CNC(=O)c1c(O)n(C)c(=O)n(C)c1=O [compound 23]
[1]
  selectivity for OGFOD1 over PHD2, in words: did not manifest clear selectivity for OGFOD1 over PHD2

## CC(C)(C)OC(=O)c1ccc(-n2[nH]cc(-n3ccnn3)c2=O)nc1 [IOX4, reference compound]
[2]
  HIFα stabilization in HeLa cells, in words: inhibits the hydroxylation of HIFα, preventing proteasomal degradation

## CCOC(=O)CNC(=O)c1c(O)[nH]c(=O)[nH]c1=O [compound 22]
[1]
  selectivity for OGFOD1 over PHD2, in words: did not manifest clear selectivity for OGFOD1 over PHD2

## Cn1c(O)c(C(=O)C2Cc3ccccc3C2)c(=O)n(C)c1=O
other
  melting point: 120 °C

## CC(=O)c1c(O)[nH]c(=O)[nH]c1=O [compound 18]
[1]
  OGFOD1 inhibition in fragment-based screening, in words: improved potency

## Cn1c(O)c(C(=O)CCCc2ccccc2)c(=O)n(C)c1=O [compound 27]
[1]
  relative potency of OGFOD1 inhibition in barbiturate SAR, in words: did not provide a substantial increase in potency

## Cn1c(O)c(C(=O)CCC2CCCCC2)c(=O)n(C)c1=O
other
  melting point: 58 °C

## Cn1c(O)c(C(=O)c2ccccc2)c(=O)n(C)c1=O [compound 24]
[3]
  inhibition of PHD2 hydroxylation activity, in words: Lack of inhibition
[1]
  IC50: 30 µM

## O=C1CCCC(=O)C1C(=O)c1ccc(C(F)(F)F)cc1[N+](=O)[O-] [compound 1, nitisinone, reference compound]
[1]
  inhibition of OGFOD1 hydroxylation activity, in words: is an OGFOD1 inhibitor

## Cn1c(O)c(C(=O)[C@H]2C[C@H]2c2ccccc2)c(=O)n(C)c1=O
other
  melting point: 111 °C

## CC(=O)c1c(O)cccc1O [compound 16, 2′,6′‐dihydroxyacetophenone]
[1]
  OGFOD1 inhibition in fragment-based screening, in words: relatively poor OGFOD1 inhibitor

## CCn1c(O)c(C(=O)CCC2CCCC2)c(=O)n(CC)c1=O [compound 30]
[1]
  relative potency of OGFOD1 inhibition in barbiturate SAR, in words: less potent than 29

## O=C(O)CNC(=O)c1nc(Cl)c2ccccc2c1O [compound 7, reference compound]
[1]
  inhibition of OGFOD1 hydroxylation activity, in words: inhibited OGFOD1

## CCOC(=O)CC(=O)OCC [compound 10, diethyl malonate]
[1]
  OGFOD1 inhibition in fragment-based screening, in words: poor inhibitors

## CC(=O)c1c(O)n(C)c(=O)n(C)c1=O [compound 20]
[1]
  OGFOD1 inhibition in fragment-based screening, in words: improved potency

## Cn1c(O)c(C(=O)Cc2ccccc2)c(=O)n(C)c1=O [compound 25]
[3]
  inhibition of PHD2 hydroxylation activity, in words: Lack of inhibition
[1]
  IC50: 2 µM

## CCC(O)=C1C(=O)CC(C(=O)O)CC1=O (stereo not drawn) [compound 4, prohexadione‐calcium, reference compound]
[1]
  inhibition of OGFOD1 hydroxylation activity, in words: inhibition of OGFOD1

## Cn1c(O)c(C(=O)NCc2ccccc2)c(=O)n(C)c1=O [compound 46]
[1]
  relative potency of OGFOD1 inhibition in barbiturate SAR, in words: had little effect

## Cc1cccc(CCC(=O)c2c(O)n(C)c(=O)n(C)c2=O)c1
other
  melting point: 131 °C

## CC(CC(=O)c1c(O)n(C)c(=O)n(C)c1=O)c1ccccc1 (stereo not drawn)
other
  melting point: 100 °C

## Cn1c(O)c(C(=O)CCCCc2ccccc2)c(=O)n(C)c1=O [compound 28]
[1]
  relative potency of OGFOD1 inhibition in barbiturate SAR, in words: did not provide a substantial increase in potency

## O=C(O)CNC(=O)c1c(O)c2ccccc2n(Cc2ccccc2)c1=O [compound 9, reference compound]
[1]
  inhibition of OGFOD1 hydroxylation activity, in words: inhibited OGFOD1

## CC(=O)c1c(O)[nH]c(=S)[nH]c1=O [compound 19]
[1]
  OGFOD1 inhibition in fragment-based screening, in words: did not substantially increase the potency

## O=C(CCC1CCCC1)c1c(O)n(C2CCCCC2)c(=O)n(C2CCCCC2)c1=O [compound 31]
[1]
  relative potency of OGFOD1 inhibition in barbiturate SAR, in words: less potent than 29

## CC(=O)C1CCCCC1=O (stereo not drawn) [compound 11, 2‐acetylcyclohexanone]
[1]
  OGFOD1 inhibition in fragment-based screening, in words: poor inhibitors

## trinexapac‐ethyl [compound 5, reference compound]
[1]
  inhibition of OGFOD1 hydroxylation activity, in words: inhibition of OGFOD1

## Cc1nc(C(=O)NCC(=O)O)c(O)c2ccc(Oc3ccccc3)cc12 [compound 8, reference compound]
[1]
  inhibition of OGFOD1 hydroxylation activity, in words: inhibited OGFOD1
